The assay has as its target Factor XIa (Homo sapiens (Human), UniProt P03951). Briefly: Factor XIa enzyme inhibition assay (dose response, fluorogenic AMC substrate). The settings on record: read-out: hFXIa IC50. It counts as biochemical. How it is done:
• Assay buffer: 20 mM Hepes, pH 7.4; 150 mM NaCl; 0.02% Tween 20 • Compounds: 10 mM stocks in DMSO • Substrate: 20 mM Glp-Pro-Arg-AMC, 25 mg/2.3 mL H2O (store at +4° C.) [Factor XIa, thrombin, and trypsin] • 20 mM Pro-Phe-Arg-AMC (Bachem I-1295), 25 mg/2.2 mL H2O • or Boc-Leu-Gly-Arg-AMC (Bachem I-1105), 25 mg/2.07 mL H2O • (store at +4° C.) [Factor Xa] • Enzyme: Factor XIa; 0.25 μM in 50% glycerol (20 μg/mL) • Trypsin; 0.2 μM in 50% glycerol (4.8 μg/mL) • Thrombin; 0.2 μM in 50% glycerol (7.34 μg/mL) • Factor Xa; 0.2 μM in 50% glycerol (9.2 μg/mL) • These stocks are aliquoted (˜100 μL/aliquot) and stored at −20° C. Methods: • 1. Dilute the substrate to 100 μM in assay buffer (30 μL/6 mL). The enzyme is diluted to 0.5 nM just prior to use (12 μL/6 mL for Factor XIa; 15 μL/6 mL for all of the rest.) • 2. Pipette 50 μL of substrate into each well of the 96 well (12×8) microtiter plate. (Column 1 is used as the 100% activity control and receives no compound, and Column 12 is the blank and receives no enzyme.) Add an additional 46 μL to column 2. • 3. Pipette 4 μL of each compound into the appropriate well in column 2 of the plate (unknowns assayed in triplicate, standard assayed in duplicate). The final compound concentration will be […] of the stock. • 4. Serially two-fold dilute the compound by mixing the sample in column 2, removing 50 μL to the next well (column 3), mix and remove to column 4, etc. until column 11. After mixing column 11, remove 50 μL and discard. • 5. Pipette 50 μL of buffer into column 12. Initiate the reaction by adding 50 μL of enzyme solution to each well of columns 1-11 as rapidly as possible. • 6. Read the plate in a spectrophotometer (SpectraMax) at 30° C., wherein each well is measured every 60 s for 30 min. For Factor Xa assays, each well is measured every 1 min for a total of 60 min. • 7. For Factor XIa assays, the compounds are assayed, in duplicate, at 3 different starting concentrations, 20, 2, and 0.2 μM; 1:10, 1:100, and 1:1000 dilution of 10 mM stock or at 2, 0.2, and 0.02 μM; 1:100, 1:1000, and 1:10,000 dilution of 10 mM stock. Data for each concentration are combined for graphing and data fitting. • 8. Data can be used both for estimation of IC50 and for estimation of Kon.
Potential inhibitors of Factor XIa were evaluated using the following assay.
PyroGlu-Pro-Arg-7-methylaminocourin (AMC), available from CPC Scientific, Inc., is based on the substrate pyro-Glu-Pro-Arg-pNA (S-2366), available from Diapharma Group, Inc. (Columbus, Ohio), wherein the p-nitroanaline group is replaced with 7-methylaminocoumarin (AMC).
The final concentration of the substrate in the assay was 50 μM, and the final concentration of the enzyme was 0.25 nM. Inhibitors were tested by serial dilution over an appropriate range to yield a dose response curve for determination of the inhibitors' IC50 value. The assay mixture was read every minute for 30 minutes in order to generate progress curves. The plates were read in a Spectramax m5 Multimode Plate Reader (Molecular Devices LLC, Sunnyvale, Calif.). Dose response curves were fit to Equation 1 below in which A is the maximum inhibition, B is the minimum inhibition, C is the IC50, and D is the Hill coefficient. Y=[(A−B)/(1+(X/C)^D)]+B (Equation 1)

Each structure is given as a SMILES string.

Chain of Factor XIa (P03951 388-625): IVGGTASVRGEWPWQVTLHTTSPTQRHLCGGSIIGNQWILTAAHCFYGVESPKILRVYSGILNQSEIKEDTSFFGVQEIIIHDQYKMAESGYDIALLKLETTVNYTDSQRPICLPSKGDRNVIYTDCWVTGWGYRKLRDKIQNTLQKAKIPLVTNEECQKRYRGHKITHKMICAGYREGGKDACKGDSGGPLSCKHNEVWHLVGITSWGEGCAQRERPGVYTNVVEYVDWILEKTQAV
Chain of Factor XIa (P03951 19-387 partner): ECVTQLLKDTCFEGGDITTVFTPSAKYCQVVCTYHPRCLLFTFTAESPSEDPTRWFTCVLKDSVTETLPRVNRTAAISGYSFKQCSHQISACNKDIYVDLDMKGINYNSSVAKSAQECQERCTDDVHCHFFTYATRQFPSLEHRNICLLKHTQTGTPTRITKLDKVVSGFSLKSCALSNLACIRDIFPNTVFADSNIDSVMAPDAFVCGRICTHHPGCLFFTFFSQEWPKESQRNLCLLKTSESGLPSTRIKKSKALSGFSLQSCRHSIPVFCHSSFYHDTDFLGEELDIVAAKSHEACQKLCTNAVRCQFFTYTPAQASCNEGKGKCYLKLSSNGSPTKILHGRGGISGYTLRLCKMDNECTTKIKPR

As for `CC[C@@H](NC(=O)N1C(=O)[C@H](Cc2ccnc(N)c2)[C@H]1C(=O)N(C)c1ccn(C)n1)c1ccsc1` [Compound 1-54, (2S,3R)-3-((2-aminopyridin-4-yl)methyl)-N2-(1-methyl-1H-pyrazol-3-yl)-N1-((R)-1-(thiophen-3-yl)propyl)-N2-methyl-4-oxoazetidine-1,2-dicarboxamide], the 50% inhibitory concentration (IC50) lay in the range of 10 to 100 nM.

Consider `CC[C@H](c1cccc(Cl)c1)N(C)C(=O)N1C(=O)[C@H](Cc2ccnc(N)c2)[C@H]1C(=O)N(C)c1ccnn1C` [Compound 1-60, (2S,3R)-3-((2-aminopyridin-4-yl)methyl)-N2-(1-methyl-1H-pyrazol-5-yl)-N1-((R)-1-(3-chlorophenyl)propyl)-N1-methyl-N2-methyl-4-oxoazetidine-1,2-dicarboxamide], for which the IC50 was in the range of 10 to 100 nM.

As to `CC[C@@H](NC(=O)N1C(=O)[C@H](Cc2cc(C)nc(NC)c2)[C@H]1C(=O)N(C)c1ccnn1C)c1ccccc1` [Compound 1-61, (2S,3R)-3-((2-methylamino-6-methylpyridin-4-yl)methyl)-N2-(1-methyl-1H-pyrazol-5-yl)-N1-((R)-1-phenylpropyl)-N2-methyl-4-oxoazetidine-1,2-dicarboxamide], the concentration for half-maximal inhibition (IC50) fell in the range of 10 to 100 nM.

For `CNC(=O)N1C(=O)[C@H](Cc2ccnc(N)c2)[C@H]1C(=O)N(C)c1ccn(C)n1` [Compound 1-64, (2S,3R)-3-((2-aminopyridin-4-yl)methyl)-N2-(1-methyl-1H-pyrazol-3-yl)-N1-methyl-N2-methyl-4-oxoazetidine-1,2-dicarboxamide], the IC50 was 100 to 1000 nM.

Consider `CC[C@@H](NC(=O)N1C(=O)[C@H](Cc2cc(C)nc(NC)c2)[C@H]1C(=O)N(C)c1cnn(C)c1)c1ccccc1` [Compound 1-66, (2S,3R)-3-((2-methylamino-6-methylpyridin-4-yl)methyl)-N2-(1-methyl-1H-pyrazol-4-yl)-N1-((R)-1-phenylpropyl)-N2-methyl-4-oxoazetidine-1,2-dicarboxamide], for which the half-inhibitory concentration (IC50) was in the range of 10 to 100 nM.

On to `CCC[C@@H](NC(=O)N1C(=O)[C@H](Cc2ccnc(N)c2)[C@H]1C(=O)N(C)c1ccn(C)n1)C1CCCCC1` [Compound 1-68, (2S,3R)-3-((2-aminopyridin-4-yl)methyl)-N2-(1-methyl-1H-pyrazol-3-yl)-N1-((R)-1-cyclohexylbutyl)-N2-methyl-4-oxoazetidine-1,2-dicarboxamide], for which the IC50 was in the range of 10 to 100 nM.

Consider `CCCC[C@@H](NC(=O)N1C(=O)[C@H](Cc2ccnc(N)c2)[C@H]1C(=O)N(C)c1ccn(C)n1)C1CCCCC1` [Compound 1-73, (2S,3R)-3-((2-aminopyridin-4-yl)methyl)-N2-(1-methyl-1H-pyrazol-3-yl)-N1-((R)-1-cyclohexylpentyl)-N2-methyl-4-oxoazetidine-1,2-dicarboxamide], for which the half-maximal inhibitory concentration (IC50) was 10 to 100 nM.

With `CC[C@@H](NC(=O)N1C(=O)[C@H](Cc2cc(C)nc(N)c2)[C@H]1C(=O)N(C)c1nccn1C)C1CCCCC1` [Compound 1-75, (2S,3R)-3-((2-amino-6-methylpyridin-4-yl)methyl)-N2-(1-methyl-1H-imidazol-2-yl)-N1-((R)-1-cyclohexylpropyl)-N2-methyl-4-oxoazetidine-1,2-dicarboxamide], the concentration for half-maximal inhibition (IC50) is 10 to 100 nM.

Turning to `CC[C@@H](NC(=O)N1C(=O)[C@H](Cc2cc(C)nc(N)c2)[C@H]1C(=O)N(C)c1cn(C)cn1)C1CCCCC1` [Compound 1-76, (2S,3R)-3-((2-amino-6-methylpyridin-4-yl)methyl)-N2-(1-methyl-1H-imidazol-4-yl)-N1-((R)-1-cyclohexylpropyl)-N2-methyl-4-oxoazetidine-1,2-dicarboxamide], the IC50 fell in the range of 10 to 100 nM.

In the case of `CC[C@@H](NC(=O)N1C(=O)[C@H](Cc2ccnc(N)c2)[C@H]1C(=O)N(C)c1c(C)cnn1C)c1ccccc1` [Compound 1-78, (2S,3R)-3-((2-aminopyridin-4-yl)methyl)-N2-(1,4-dimethyl-1H-pyrazol-5-yl)-N1-((R)-1-phenylpropyl)-N2-methyl-4-oxoazetidine-1,2-dicarboxamide], the IC50 fell in the range of 10 to 100 nM.

For `CC[C@@H](NC(=O)N1C(=O)[C@H](Cc2cc(C)nc(N)c2)[C@H]1C(=O)N(C)c1nccn1C)c1ccc(C)nc1` [Compound 1-82, (2S,3R)-3-((2-amino-6-methylpyridin-4-yl)methyl)-N2-(1-methyl-1H-imidazol-2-yl)-N1-((R)-1-(6-methylpyridin-3-yl)propyl)-N2-methyl-4-oxoazetidine-1,2-dicarboxamide], the concentration for half-maximal inhibition (IC50) fell in the range of 10 to 100 nM.

As to `CC(C)[C@@H](NC(=O)N1C(=O)[C@H](Cc2ccnc(N)c2)[C@H]1C(=O)N(C)c1nccn1C)c1ccccc1` [Compound 1-85, (2S,3R)-3-((2-aminopyridin-4-yl)methyl)-N2-(1-methyl-1H-imidazol-2-yl)-N1-((R)-1-phenyl-2-methylpropyl)-N2-methyl-4-oxoazetidine-1,2-dicarboxamide], the half-maximal inhibitory concentration (IC50) was 10 to 100 nM.

On to `CC[C@@H](NC(=O)N1C(=O)[C@H](Cc2ccnc(N)c2)[C@H]1C(=O)N(C)c1nccn1C)c1cccc(F)c1C` [Compound 1-86, (2S,3R)-3-((2-aminopyridin-4-yl)methyl)-N2-(1-methyl-1H-imidazol-2-yl)-N1-((R)-1-(3-fluoro-2-methylphenyl)propyl)-N2-methyl-4-oxoazetidine-1,2-dicarboxamide], for which the half-inhibitory concentration (IC50) fell in the range of 100 to 1000 nM.

In the case of `CC[C@H](NC(=O)N1C(=O)[C@H](Cc2ccnc(N)c2)[C@H]1C(=O)N(C)c1ccn(C)n1)c1cccc(Cl)c1` [Compound 1-93, (2S,3R)-3-((2-aminopyridin-4-yl)methyl)-N2-(1-methyl-1H-pyrazol-3-yl)-N1-((S)-1-(3-chlorophenyl)propyl)-N2-methyl-4-oxoazetidine-1,2-dicarboxamide], the IC50 was in the range of 10 to 100 nM.

Turning to `CC[C@@H](NC(=O)N1C(=O)[C@H](Cc2ccnc(N)c2)[C@H]1C(=O)N(C)c1nccn1C)c1ccc(C)nc1C` [Compound 1-95, (2S,3R)-3-((2-aminopyridin-4-yl)methyl)-N2-(1-methyl-1H-imidazol-2-yl)-N1-((R)-1-(2,6-dimethylpyridin-3-yl)propyl)-N2-methyl-4-oxoazetidine-1,2-dicarboxamide], the concentration for half-maximal inhibition (IC50) lay in the range of 10 to 100 nM.

Turning to `CC[C@H](NC(=O)N1C(=O)[C@H](Cc2ccnc(N)c2)[C@H]1C(=O)N(C)c1nccn1C)c1ccc(C)nc1C` [Compound 1-96, (2S,3R)-3-((2-aminopyridin-4-yl)methyl)-N2-(1-methyl-1H-imidazol-2-yl)-N1-((S)-1-(2,6-dimethylpyridin-3-yl)propyl)-N2-methyl-4-oxoazetidine-1,2-dicarboxamide], the IC50 was 100 to 1000 nM.

Consider `CC[C@@H](NC(=O)N1C(=O)[C@H](Cc2cc(C)nc(N)c2)[C@H]1C(=O)N(C)c1nccn1C)c1cc(C)ccc1C` [Compound 1-108, (2S,3R)-3-((2-amino-6-methylpyridin-4-yl)methyl)-N2-(1-methyl-1H-imidazol-2-yl)-N1-((R)-1-(2,5-dimethylphenyl)propyl)-N2-methyl-4-oxoazetidine-1,2-dicarboxamide], for which the half-inhibitory concentration (IC50) fell in the range of 10 to 100 nM.

As to `CC[C@@H](NC(=O)N1C(=O)[C@H](Cc2ccnc(N)c2)[C@H]1C(=O)N(C)c1nccn1C)c1ccc(C)cc1Cl` [Compound 1-116, (2S,3R)-3-((2-aminopyridin-4-yl)methyl)-N2-(1-methyl-1H-imidazol-2-yl)-N1-((R)-1-(2-chloro-4-methylphenyl)propyl)-N2-methyl-4-oxoazetidine-1,2-dicarboxamide], the half-maximal inhibitory concentration (IC50) was under 10 nM.

For `CC[C@@H](NC(=O)N1C(=O)[C@H](Cc2ccnc(N)c2)[C@H]1C(=O)N(C)c1nccn1C)c1ccc(F)c(C)c1` [Compound 1-117, (2S,3R)-3-((2-aminopyridin-4-yl)methyl)-N2-(1-methyl-1H-imidazol-2-yl)-N1-((R)-1-(3-methyl-4-fluorophenyl)propyl)-N2-methyl-4-oxoazetidine-1,2-dicarboxamide], the IC50 was under 10 nM.

The values above are taken from patent US11691962B2 (eXIthera Pharmaceuticals, Inc., priority 2018, dated 2023).
